Test results: patent publication US11168073B2, “3,3-difluoroallylamines or salts thereof and pharmaceutical compositions comprising the same” (YUHAN CORPORATION, priority 2018, dated 2021)
Structures can show the parent of a compound that is named as a salt.

Experiments:
Assay type in all cases: biochemical
recombinant human VAP-1 = target: T1, recombinant human VAP-1 (Homo sapiens, UniProt Q16853); test: Activity evaluation on recombinant human VAP-1 (Amplex Red/HRP-coupled hydrogen peroxide assay, benzylamine substrate); conditions: recombinant human VAP-1, benzylamine substrate; read-out: Inhibitory Activity (IC50, nM) human VAP-1
T1 construct: purchased R&D systems
T1 sequence (Q16853 1-763): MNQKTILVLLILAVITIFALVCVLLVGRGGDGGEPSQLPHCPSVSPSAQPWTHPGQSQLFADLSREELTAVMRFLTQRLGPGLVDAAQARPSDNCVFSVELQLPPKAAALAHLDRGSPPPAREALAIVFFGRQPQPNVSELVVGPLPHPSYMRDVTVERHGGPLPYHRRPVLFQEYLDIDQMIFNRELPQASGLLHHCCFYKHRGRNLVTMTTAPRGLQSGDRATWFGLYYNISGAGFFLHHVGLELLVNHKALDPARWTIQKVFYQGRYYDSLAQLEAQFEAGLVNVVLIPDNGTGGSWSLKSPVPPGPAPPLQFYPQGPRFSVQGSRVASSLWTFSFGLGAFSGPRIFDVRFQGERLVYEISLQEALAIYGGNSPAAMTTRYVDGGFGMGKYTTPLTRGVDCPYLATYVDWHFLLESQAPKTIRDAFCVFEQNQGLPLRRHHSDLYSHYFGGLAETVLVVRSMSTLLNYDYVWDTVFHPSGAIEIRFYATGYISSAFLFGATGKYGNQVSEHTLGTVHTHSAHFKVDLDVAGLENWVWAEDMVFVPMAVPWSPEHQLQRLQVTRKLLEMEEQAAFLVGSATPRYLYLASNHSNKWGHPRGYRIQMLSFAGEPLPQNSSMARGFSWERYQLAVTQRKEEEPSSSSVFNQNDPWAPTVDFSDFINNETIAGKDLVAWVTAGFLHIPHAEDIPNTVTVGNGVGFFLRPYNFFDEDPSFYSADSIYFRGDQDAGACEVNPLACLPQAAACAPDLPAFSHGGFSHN
How it was run: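 Recombinant human VAP-1 in 50 mM sodium phosphate pH 7.4 preincubated 30 min at 37 °C with compound (8-point 1:3 series, <1% DMSO), then 1 mM benzylamine, 200 uM Amplex Red, 1 U/mL HRP added. H2O2-derived resorufin fluorescence (ex 544/em 590) followed 1–2 h; IC50 from four-parameter fit of rate inhibition.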

[1] = target: T2, recombinant human MAO-B (monoamine oxidase-B) (Homo sapiens, UniProt P27338); test: Activity evaluation on recombinant human MAO-B (Amplex Red/HRP-coupled assay, 1 mM benzylamine substrate); conditions: 1 mM benzylamine substrate, read-out: Inhibitory Activity (IC50, nM) MAO-B
T2 construct: purchased Sigma-Aldrich
T2 sequence (P27338 1-520): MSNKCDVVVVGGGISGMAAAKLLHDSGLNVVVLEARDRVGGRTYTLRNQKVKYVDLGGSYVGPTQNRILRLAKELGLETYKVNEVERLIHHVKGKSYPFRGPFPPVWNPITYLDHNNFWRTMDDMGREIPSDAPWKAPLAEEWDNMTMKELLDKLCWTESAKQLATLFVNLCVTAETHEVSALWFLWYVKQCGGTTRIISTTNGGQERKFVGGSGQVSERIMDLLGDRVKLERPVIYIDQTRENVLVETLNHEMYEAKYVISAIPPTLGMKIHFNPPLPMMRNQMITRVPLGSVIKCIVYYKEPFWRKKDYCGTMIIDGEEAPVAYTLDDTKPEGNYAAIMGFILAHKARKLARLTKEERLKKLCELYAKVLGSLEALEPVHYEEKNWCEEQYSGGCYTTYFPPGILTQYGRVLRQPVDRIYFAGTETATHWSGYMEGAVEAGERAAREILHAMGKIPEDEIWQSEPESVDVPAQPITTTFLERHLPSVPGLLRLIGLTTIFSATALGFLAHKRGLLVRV
How it was run: (§1)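 Compounds preincubated 30 min at 37 °C with enzyme in 50 mM sodium phosphate pH 7.4 (final DMSO <1%, 8-point 1:3 dilutions); reaction started with 200 uM Amplex Red, 1 U/mL HRP and substrate (MAO-A 0.5 mM tyramine, MAO-B 1 mM benzylamine, DAO 1 mM putrescine). Resorufin fluorescence (ex 544/em 590 nm) followed over 1-2 h; IC50 from four-parameter logistic fit.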

[2] = target: T3, recombinant human DAO (diamine oxidase) (Homo sapiens, UniProt P19801); test: Activity evaluation on recombinant human DAO (Amplex Red/HRP-coupled assay, 1 mM putrescine substrate); conditions: 1 mM putrescine substrate, read-out: Inhibitory Activity (IC50, nM) DAO
T3 construct: purchased R&D systems
T3 sequence (P19801 20-751): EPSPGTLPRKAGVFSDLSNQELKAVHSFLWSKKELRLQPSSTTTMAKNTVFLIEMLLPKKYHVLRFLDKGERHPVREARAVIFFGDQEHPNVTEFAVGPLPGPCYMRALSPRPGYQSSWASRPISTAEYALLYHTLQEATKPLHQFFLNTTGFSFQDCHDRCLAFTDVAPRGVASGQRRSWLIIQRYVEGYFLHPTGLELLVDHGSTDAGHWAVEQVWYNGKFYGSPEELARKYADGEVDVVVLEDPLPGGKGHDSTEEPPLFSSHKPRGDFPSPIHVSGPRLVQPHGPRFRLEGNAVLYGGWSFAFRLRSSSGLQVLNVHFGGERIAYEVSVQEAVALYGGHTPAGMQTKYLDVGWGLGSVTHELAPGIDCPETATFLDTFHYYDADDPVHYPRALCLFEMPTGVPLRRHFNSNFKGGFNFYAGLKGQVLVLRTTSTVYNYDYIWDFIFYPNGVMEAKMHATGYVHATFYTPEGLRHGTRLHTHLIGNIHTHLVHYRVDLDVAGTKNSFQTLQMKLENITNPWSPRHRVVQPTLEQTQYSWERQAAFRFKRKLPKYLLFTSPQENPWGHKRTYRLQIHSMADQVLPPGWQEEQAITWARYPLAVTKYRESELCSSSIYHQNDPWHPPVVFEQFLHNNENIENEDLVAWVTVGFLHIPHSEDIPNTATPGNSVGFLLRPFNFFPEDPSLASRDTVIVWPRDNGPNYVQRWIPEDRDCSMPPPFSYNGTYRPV
How it was run: as §1

[3] = target: T4, recombinant human MAO-A (monoamine oxidase-A) (Homo sapiens, UniProt P21397); test: Activity evaluation on recombinant human MAO-A (Amplex Red/HRP-coupled assay, 0.5 mM tyramine substrate); conditions: 0.5 mM tyramine substrate, read-out: Inhibitory Activity (IC50, nM) MAO-A
T4 construct: purchased Sigma-Aldrich
T4 sequence (P21397 1-527): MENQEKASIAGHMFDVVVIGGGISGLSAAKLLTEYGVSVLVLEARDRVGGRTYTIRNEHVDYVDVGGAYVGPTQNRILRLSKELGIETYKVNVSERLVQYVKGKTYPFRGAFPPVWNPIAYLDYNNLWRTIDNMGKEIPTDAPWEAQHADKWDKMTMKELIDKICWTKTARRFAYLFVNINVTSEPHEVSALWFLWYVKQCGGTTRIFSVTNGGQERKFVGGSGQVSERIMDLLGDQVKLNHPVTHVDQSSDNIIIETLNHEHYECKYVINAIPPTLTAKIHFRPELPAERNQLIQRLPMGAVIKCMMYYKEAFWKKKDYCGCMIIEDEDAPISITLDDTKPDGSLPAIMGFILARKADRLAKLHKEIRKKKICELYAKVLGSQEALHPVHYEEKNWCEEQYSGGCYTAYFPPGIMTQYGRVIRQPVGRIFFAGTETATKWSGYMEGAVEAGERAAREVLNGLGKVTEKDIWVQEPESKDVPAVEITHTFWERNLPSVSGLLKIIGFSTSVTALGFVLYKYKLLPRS
How it was run: as §1

| SMILES | IC50 (recombinant human VAP-1) [nM] | IC50 [1] [nM] | IC50 [2] [nM] | IC50 [3] [nM] |
| --- | --- | --- | --- | --- |
| Cc1cc(-c2cccc(-c3nc[nH]n3)c2)cnc1-n1cnn(CC(CN)=C(F)F)c1=O [Example 239, 2-[2-(aminomethyl)-3,3-difluoro-allyl]-4-[3-methyl-5-[3-(1H-1,2,4-triazol-3-yl)phenyl]-2-pyridyl]-1,2,4-triazol-3-one trifluoroacetate] | 2.7 | 14000 | 11000 | > 100000 |
| Cc1cc(C#Cc2cnn(C)c2)cnc1-n1cnn(CC(CN)=C(F)F)c1=O [Example 240, 2-[2-(aminomethyl)-3,3-difluoro-allyl]-4-[3-methyl-5-[2-(1-methylpyrazol-4-yl)ethynyl]-2-pyridyl]-1,2,4-triazol-3-one trifluoroacetate] | 1 | 15000 | 30000 | > 100000 |
| Cc1cc(C#Cc2ccc(N(C)C)nc2)cnc1-n1cnn(CC(CN)=C(F)F)c1=O [Example 241, 2-[2-(aminomethyl)-3,3-difluoro-allyl]-4-[5-[2-[6-(dimethylamino)-3-pyridyl]ethynyl]-3-methyl-2-pyridyl]-1,2,4-triazol-3-one Trifluoroacetate] | 1.3 | 6300 | 25000 | > 100000 |
| Cc1cc(C#Cc2ccc(N3CCOCC3)nc2)cnc1-n1cnn(CC(CN)=C(F)F)c1=O [Example 242, 2-[2-(aminomethyl)-3,3-difluoro-allyl]-4-[3-methyl-5-[2-(6-morpholino-3-pyridyl)ethynyl]-2-pyridyl]-1,2,4-triazol-3-one Trifluoroacetate] | 1 | 29000 | 4200 | > 100000 |
| Cc1cc(C#Cc2ccc3c(c2)NCCO3)cnc1-n1cnn(CC(CN)=C(F)F)c1=O [Example 243, 2-[2-(aminomethyl)-3,3-difluoro-allyl]-4-[5-[2-(3,4-dihydro-2H-1,4-benzoxazin-6-yl)ethynyl]-3-methyl-2-pyridyl]-1,2,4-triazol-3-one Ditrifluoroacetate] | 0.9 | 2200 | 4600 | 32700 |
| Cc1cc(C#Cc2cnc3c(c2)OCCN3)cnc1-n1cnn(CC(CN)=C(F)F)c1=O [Example 245, 2-[2-(aminomethyl)-3,3-difluoro-allyl]-4-[5-[2-(3,4-dihydro-2H-pyrido[3,2-b][1,4]oxazin-7-yl)ethynyl]-3-methyl-2-pyridyl]-1,2,4-triazol-3-one ditrifluoroacetate] | 2.7 | 15000 | 14000 | > 100000 |
| Cc1cc(C#Cc2ccc3c(n2)OCCN3)cnc1-n1cnn(CC(CN)=C(F)F)c1=O [Example 246, 2-[2-(aminomethyl)-3,3-difluoro-allyl]-4-[5-[2-(2,3-dihydro-1H-pyrido[2,3-b][1,4]oxazin-6-yl)ethynyl]-3-methyl-2-pyridyl]-1,2,4-triazol-3-one ditrifluoroacetate] | 2.3 | 120000 | 59000 | > 100000 |

Now those with a lower IC50 (recombinant human VAP-1), led by results:

| IC50 (recombinant human VAP-1) [nM] | IC50 [1] [nM] | IC50 [2] [nM] | IC50 [3] [nM] | SMILES |
| --- | --- | --- | --- | --- |
| 0.8 | > 100000 | 6700 | > 100000 | Cc1cc(-c2ccc(C(=O)N3CCOCC3)cc2)cnc1-n1cnn(CC(CN)=C(F)F)c1=O [Example 236, 2-[2-(aminomethyl)-3,3-difluoro-allyl]-4-[3-methyl-5-[4-(morpholine-4-carbonyl)phenyl]-2-pyridyl]-1,2,4-triazol-3-one Trifluoroacetate] |
| 0.42 | 84000 | 6100 | > 100000 | Cc1cc(-c2ccc(N3CCOCC3)cc2)cnc1-n1cnn(CC(CN)=C(F)F)c1=O [Example 237, 2-[2-(aminomethyl)-3,3-difluoro-allyl]-4-[3-methyl-5-(4-morpholinophenyl)-2-pyridyl]-1,2,4-triazol-3-one Trifluoroacetate] |
| 0.14 | 1800 | 310 | > 100000 | Cc1cc(-c2ccc(S(=O)(=O)N(C)C)cc2)cnc1-n1cnn(CC(CN)=C(F)F)c1=O [Example 238, 4-[6-[1-[2-(aminomethyl)-3,3-difluoro-allyl]-5-oxo-1,2,4-triazol-4-yl]-5-methyl-3-pyridyl]-N,N-dimethyl-benzenesulfonamide trifluoroacetate] |
| 0.8 | 37000 | 9000 | > 100000 | Cc1cc(C#Cc2cnc3c(c2)NCCO3)cnc1-n1cnn(CC(CN)=C(F)F)c1=O [Example 244, 2-[2-(aminomethyl)-3,3-difluoro-allyl]-4-[5-[2-(2,3-dihydro-1H-pyrido[2,3-b][1,4]oxazin-7-yl)ethynyl]-3-methyl-2-pyridyl]-1,2,4-triazol-3-one ditrifluoroacetate] |
| 0.3 | > 100000 | 43000 | > 100000 | Cc1cc(C#Cc2cnc3c(c2)NC(=O)CO3)cnc1-n1cnn(CC(CN)=C(F)F)c1=O [Example 247, 7-[2-[6-[1-[2-(aminomethyl)-3,3-difluoro-allyl]-5-oxo-1,2,4-triazol-4-yl]-5-methyl-3-pyridyl]ethynyl]-1H-pyrido[2,3-b][1,4]oxazin-2-one Trifluoroacetate] |
